In ChEMBL document CHEMBL1126236, “Synthesis and muscarinic receptor activity of ester derivatives of 2-substituted 2-azabicyclo[2.2.1]heptan-5-ol and -6-ol” (J Med Chem, 1992):
pKi: −log10 of the molar value.

Tests used:
[1] = target: Muscarinic acetylcholine receptor; test: Inhibition of [3H]QNB binding to muscarinic receptor of rat heart membrane preparation.
[2] = target: T1, Muscarinic acetylcholine receptor M3 (Rattus norvegicus, UniProt P08483); test: Inhibition of [3H]QNB binding to Muscarinic acetylcholine receptor M3 transfected with CHO cell; type: cell-based
T1 sequence (P08483 whole entry): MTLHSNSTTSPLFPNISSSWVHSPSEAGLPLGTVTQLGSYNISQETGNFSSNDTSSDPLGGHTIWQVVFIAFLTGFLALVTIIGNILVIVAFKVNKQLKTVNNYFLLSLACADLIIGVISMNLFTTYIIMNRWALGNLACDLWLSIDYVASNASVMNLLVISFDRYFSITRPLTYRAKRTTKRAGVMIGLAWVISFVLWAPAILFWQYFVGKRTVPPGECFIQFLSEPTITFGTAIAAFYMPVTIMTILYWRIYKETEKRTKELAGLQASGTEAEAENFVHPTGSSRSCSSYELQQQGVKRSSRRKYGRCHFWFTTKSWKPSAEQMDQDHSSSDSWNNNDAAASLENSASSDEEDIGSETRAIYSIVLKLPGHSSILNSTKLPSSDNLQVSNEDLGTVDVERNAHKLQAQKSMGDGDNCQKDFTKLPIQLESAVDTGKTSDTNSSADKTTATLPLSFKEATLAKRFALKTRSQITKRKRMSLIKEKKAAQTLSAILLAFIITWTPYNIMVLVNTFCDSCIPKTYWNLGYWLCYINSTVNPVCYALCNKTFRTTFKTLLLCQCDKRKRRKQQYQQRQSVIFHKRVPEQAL

[3] = target: Muscarinic acetylcholine receptor; test: Inhibition of [3H]QNB binding to muscarinic receptor of rat brain membrane preparation.
[4] = target: T2, Muscarinic acetylcholine receptor M1 (Rattus norvegicus, UniProt P08482); test: Inhibition of [3H]QNB binding to Muscarinic acetylcholine receptor M1 transfected with CHO cell; type: cell-based
T2 sequence (P08482 whole entry): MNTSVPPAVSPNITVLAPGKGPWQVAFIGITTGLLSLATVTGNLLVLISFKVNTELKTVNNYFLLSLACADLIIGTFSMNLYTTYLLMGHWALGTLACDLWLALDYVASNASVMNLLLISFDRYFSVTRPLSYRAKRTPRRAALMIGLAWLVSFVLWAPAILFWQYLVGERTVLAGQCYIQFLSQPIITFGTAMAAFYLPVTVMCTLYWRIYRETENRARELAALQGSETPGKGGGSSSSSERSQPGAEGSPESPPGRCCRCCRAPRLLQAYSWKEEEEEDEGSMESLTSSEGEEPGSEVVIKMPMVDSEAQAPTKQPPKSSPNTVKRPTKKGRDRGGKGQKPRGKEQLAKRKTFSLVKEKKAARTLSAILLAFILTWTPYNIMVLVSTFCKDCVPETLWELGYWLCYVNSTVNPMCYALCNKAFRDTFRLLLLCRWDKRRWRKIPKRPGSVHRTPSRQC

[5] = target: Muscarinic acetylcholine receptor; test: Inhibition of [3H]- Oxo-M binding to muscarinic receptor of rat brain membrane preparations
[6] = target: T1, Muscarinic acetylcholine receptor M3; test: Inhibition of [3H]QNB binding to m3 receptor transfected with CHO cell; type: cell-based

| SMILES | Ki [1] [µM] | pKi [2] | Ki [3] [µM] | pKi [4] | Ki [5] [µM] | pKi [6] |
| --- | --- | --- | --- | --- | --- | --- |
| CC(=O)O[C@@H]1CC2CC1CN2C (stereo partly specified) | 17.4 | 4.56 | 11.5 | 4.66 | 1.43 |  |
| CC(=O)O[C@H]1CC2CC1N(Cc1ccccc1)C2 (stereo partly specified) | 15.1 |  | 6.63 | 5.15 | 7.21 | 4.73 |
| CN1CC2CC1C[C@H]2OC(=O)C(C)(c1ccccc1)c1ccccc1 (stereo partly specified) | 0.00118 | 9.28 |  | 9.37 |  |  |
| CC(=O)O[C@H]1CC2CC1CN2C (stereo partly specified) | 10.1 | 4.92 | 9.84 | 4.76 | 0.23 |  |
| CC(=O)O[C@@H]1CC2CC1N(Cc1ccccc1)C2 (stereo partly specified) | 15.3 | 4.32 | 20 | 5.65 | 2.57 |  |
| CN1CC2CC1C[C@@H]2OC(=O)C(C)(c1ccccc1)c1ccccc1 (stereo partly specified) | 0.00407 | 9.27 |  | 9.06 |  |  |
| CC(=O)OC1CC2CC1N(C)C2 (stereo unspecified) | 24.9 | 4.55 | 17.5 | 4.67 | 5.37 |  |
| CC(=O)OC1CC2CC1CN2Cc1ccccc1 (stereo unspecified) | 10.3 | 4.57 | 14.8 | 4.72 | 1.56 |  |
